Tests used:
[1] = tested on: HeLa cells that stably overexpress human BCL-XL; experiment: Cell death by ATP levels in Bcl-xL overexpressing cells after zVAD-fmk pretreatment; format: cell-based; conditions: zVAD-fmk 100 μM pretreatment, 48 or 72 hours
Experimental: In another study, HeLa cells that stably overexpress human BCL-XL, and are therefore more resistant to cell death, were pretreated with zVAD-fmk (100 μM) for 1 hour, as described above. Each of the chemical compounds BH3I-1, BH3I-1′, and BH3I-2 from the ChemBridge library was then added to the media of the cells of three separate samples. After 48 or 72 hours of exposure of the cells to zVAD-fmk and the chemical compound, the level of cell death was measured for each sample, by measuring cellular ATP levels.

[2] = target: T1, Bad-GFP with Bcl-2 or Bcl-xL in BSC-1 cells (Homo sapiens, UniProt Q07817); experiment: Bad-GFP localization in intact cells; format: cell-based; conditions: for mitochondrial targeting and heterodimerization of Bad-GFP: BH3I-1 100 μM, BH3I-2 50 μM, 6 hr, 100 μM zVAD; for order of activities, Bad-GFP localization: rank order
T1 construct: expressed in transfected cells; host or cells: BSC-1 cells
Experimental: Bad is a pro-apoptotic member of the Bcl-2 family, whose apoptosis-promoting activity and mitochondrial targeting depends on heterodimerization with anti-apoptotic Bcl-2 family members (Zha et al., Cell 87, 619-28, 1996). To examine the effects of BH3Is on Bad localization, BSC-1 cells were transfected with 5 μg of Bad-GFP expression vector alone (FIG. 8D, panels 1 […]) or were co-transfected with 5 μg of Bad-GFP and 5 μg of Bcl-xL-T7 (FIG. 8D, panels 2-5). Twenty four hours after transfection, cells were treated with BH3I-1 (100 μM; FIG. 8D, panel 4) or BH3I-2 (50 μM; FIG. 8D, panel 5) for 6 hr. In order to determine mitochondrial localization, cells were pre-stained with MitoTracker Red CMXRos for 30 min prior to fixation (FIG. 8D, panel 2). All cells in this study were pretreated with 100 μM zVAD to decrease the detrimental effects of overexpression of proapoptotic Bcl-2 proteins on cell viability.
BH3Is disrupted the mitochondrial association of Bad, but not Bcl-xL, after in vitro treatment of the mitochondria isolated from 293 cells co-transfected with Bad and Bcl-xL (FIG. 8C). The relative activities of the BH3Is in this assay (BH3I-2>BH3I-1>BH3I-1″) were consistent with the previous results. […] Again, the order of the activities in these assays was BH3I-2>BH3I-1>BH3I-1″.

[3] = target: T2, Bcl-xL/Bax heterodimerization in 293 cells (Homo sapiens, UniProt Q07817); experiment: FRET between Bcl-xL-CFP and Bax-YFP in intact cells; format: cell-based; conditions: rank order; for order of relative effects on YFP fluorescence reduction: rough index of cell death
T2 construct: expressed in transfected cells; host or cells: 293 cells
Excerpt: The effect of the BH3Is on the disruption of the heterodimerization of Bcl-2 family proteins in vivo was next determined. Dimerization of Bcl-2 in immunoprecipitation experiments may represent post-lysis events induced by detergents (Hsu et al., J. Biol. Chem. 272:13829-34, 1997). Therefore, these studies focused on assaying the Bcl-xL dimerization status in intact cells. Recently, the interaction between Bax and Bcl-2 has been studied in intact living cells by fluorescent resonance energy transfer measurements between GFP fusion proteins (Mahajan et al., Nat. Biotechnol. 16:547-52, 1998). This approach was used to monitor the effects of BH3Is on Bcl-xL/Bax heterodimerization in intact cells.
293 cells were transfected with Bcl-xL-CFP and Bax-YFP expression vectors using Lipofectamine Plus (Gibco) or TransLT-1 (PanVera) and 24 hr later were treated with BH3Is. Cells were harvested in PBS supplemented with BH3Is, and fluorescence was determined using a C-60 fluorimeter (PTI) or a Wallac platereader. Fluorescence in the samples separately overexpressing Bax and Bcl-xL was added together and used to estimate the FRET value in the absence of dimerization. The extent of FRET between CFP and YFP was determined as a ratio of fluorescence at 527 nm vs. 475 nm after excitation at 433 nm.

[4] = tested on: BH3/Bcl-xL binding; experiment: SELDI binding assay, unlabeled Bak BH3 peptide on immobilized Bcl-xL-His6; conditions: for relative activity in SELDI assay: comparison between compounds
Excerpt: To test the possibility that BH3Is target the OREGON GREEN moiety of the fluorescently labeled BH3 peptide, a novel BH3/Bcl-xL binding assay using unlabeled BH3 peptide was designed. In this assay Bcl-xL was covalently attached to a surface-enhanced laser desorption/ionization (SELDI) chip, and binding of the unlabelled BH3 peptide to the immobilized protein was monitored by mass spectrometry. Specifically, purified recombinant GST-Bcl-2 and BCL-xL-His6 were coupled through their primary amines to SELDI chip surfaces derivatized with carbonyldiimidazole (Ciphergen). Bak BH3 peptide was then added (in a total volume of 1 μl) for 12 hours at 4° C. in a humidified chamber, to allow binding to each spot of the SELDI chip. The chip was then washed with alternating high and low pH-0.1M sodium acetate with 0.5M NaCl, followed by 0.01M HEPES; pH 7.3. The samples were embedded in α-cyanno-4-hydroxycinnamaic acid matrix and analyzed for mass by MALDI TOF. An average of 100 laser shots at a constant setting were collected over 20 spots in each sample.

[5] = tested on: Jurkat cells; experiment: Apoptosis in Jurkat cells (TUNEL, sub-G1 DNA, Annexin V); format: cell-based; conditions: BH3I-1 100 μM, BH3I-2 30 μM; for TUNEL staining: 48 hr; for sub-G1 DNA content: 72 hr, PI, FACS
Experimental: FIG. 6C is a series of FACS analysis graphs showing Annexin V staining of Jurkat cells. Jurkat cells were treated with BH3I-1 (100 μM) or BH3I-2 (30 μM) and were stained 4 or 6 hr later with Annexin V-EGFP/PI. The relative amounts of live, apoptotic, and late apoptotic/necrotic cells are shown.
To further examine the ability of BH3Is to induce apoptosis, Jurkat cells were treated with BH3I-1 (100 μM) (FIG. 6A, panels a and b), BH3I-2 (30 μM) (FIG. 6A, panels c and d) or DMSO (FIG. 6A, panels e and f) for 48 hr. The cells were then stained using Hoechst dye and a FragEL TUNEL kit (Oncogene Research Products). […] This was determined by treating Jurkat cells with BH3I-1 (100 μM) or BH3I-2 (30 μM), fixing them 72 hr later, and staining them with propidium iodide (PI). The samples were analyzed by FACS. Finally, BH3Is induced the appearance of Annexin V binding without an increase in PI staining (FIG. 6C).

T2 sequence (Q07817 whole entry, one chain of several): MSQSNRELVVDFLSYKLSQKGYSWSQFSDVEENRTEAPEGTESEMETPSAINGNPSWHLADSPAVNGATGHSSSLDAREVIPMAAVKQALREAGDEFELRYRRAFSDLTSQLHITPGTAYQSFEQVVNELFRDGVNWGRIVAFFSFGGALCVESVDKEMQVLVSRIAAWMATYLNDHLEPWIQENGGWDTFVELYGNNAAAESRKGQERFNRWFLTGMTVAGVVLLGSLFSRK
T1 sequence (Q07817 whole entry): as the sequence (Q07817 whole entry, one chain of several) above

SMILES	cellular ATP levels [1]	mitochondrial targeting and heterodimerization of Bad-GFP [2]	order of activities, Bad-GFP localization [2]	order of changes in the FRET ratio [3]	order of relative effects on YFP fluorescence reduction [3]	effect on BH3 peptide binding to Bcl-xL-modified SELDI surface [4]	TUNEL staining [5]	sub-G1 DNA content [5]	relative activity in SELDI assay [4]
CC(C)C(C(=O)O)N1C(=O)C(=Cc2ccc(Br)cc2)SC1=S (stereo in doubt) [BH3I-1]	cellular ATP levels decreased	efficiently disrupted mitochondrial targeting and heterodimerization of Bad-GFP	BH3I-2>BH3I-1>BH3I-1″	BH3I-2>BH3I-1>BH3I-1″	BH3I-2>BH3I-I>BH3I-1″	reduction of BH3 binding	TUNEL positivity	displayed sub-G1 DNA content	
CC(C)C(C(=O)O)N1C(=O)/C(=C/c2ccccc2)SC1=S (stereo not drawn) [BH3I-1″]			BH3I-2>BH3I-1>BH3I-1″	BH3I-2>BH3I-1>BH3I-1″	BH3I-2>BH3I-I>BH3I-1″				lower potency than BH3I-1
O=C(Nc1cc(S(=O)(=O)c2ccc(Cl)cc2)ccc1Cl)c1cc(Cl)cc(Br)c1O [BH3I-2]	cellular ATP levels decreased	efficiently disrupted mitochondrial targeting and heterodimerization of Bad-GFP	BH3I-2>BH3I-1>BH3I-1″	BH3I-2>BH3I-1>BH3I-1″	BH3I-2>BH3I-I>BH3I-1″	reduction of BH3 binding	TUNEL positivity	displayed sub-G1 DNA content	higher activity than BH3I-1

— patent US7390836B2, “Small molecules used to increase cell death” (priority 1999, dated 2008)
